The values that follow come from US20230295260A1, “GLP RECEPTOR AGONISTS” (HEPTARES THERAPEUTICS LIMITED, priority 2020, published 2023).

The target in experiment [1] is T1, human GLP1 receptor (Homo sapiens, UniProt P43220).
T1 construct: expressed in transfected cells; host or cells: HEK cells, BacMam virus transduction
Briefly: cAMP accumulation assay (HTRF), functional agonism of human GLP1 receptor in HEK cells. Type of experiment: cell-based. The note with it: HEK cells, human GLP1 receptor BacMam, 45 min 37° C.; for Emax: HEK293, read-out: Human GLP-1R agonist cAMP Emax; for EC50: read-out: Human GLP-1R agonist cAMP pEC50 (converted). In general terms: Cyclic AMP is a second messenger, typically raised through Gs and lowered through Gi signalling.
Protocol: (§1) The functional activity of the peptides were assessed using a HTRF cAMP assay. pEC50 values are quoted.
(§2) cAMP production upon agonist stimulation of human GLP2 or GLP1 receptor was assessed utilizing HiRange cAMP kit (Cisbio). In brief, HEK cells were infected with either human GLP2 or GLP1 receptor BacMam virus for 24 hours and frozen for later use in the assay. […] Cells were prepared in the assay buffer (HBSS (Lonza) supplemented with 0.5 mM IBMX (Tocris)). After 45 min incubation at 37° C., the reaction was stopped by addition of the HTRF detection reagents in the lysis buffer provided in the kit.

The target of experiment [2] is T2, mouse GLP1 receptor (Mus musculus, UniProt O35659).
T2 construct: expressed in transfected cells; host or cells: HEK cells, transient transfection with GeneJuice
T2 sequence (O35659 22-463): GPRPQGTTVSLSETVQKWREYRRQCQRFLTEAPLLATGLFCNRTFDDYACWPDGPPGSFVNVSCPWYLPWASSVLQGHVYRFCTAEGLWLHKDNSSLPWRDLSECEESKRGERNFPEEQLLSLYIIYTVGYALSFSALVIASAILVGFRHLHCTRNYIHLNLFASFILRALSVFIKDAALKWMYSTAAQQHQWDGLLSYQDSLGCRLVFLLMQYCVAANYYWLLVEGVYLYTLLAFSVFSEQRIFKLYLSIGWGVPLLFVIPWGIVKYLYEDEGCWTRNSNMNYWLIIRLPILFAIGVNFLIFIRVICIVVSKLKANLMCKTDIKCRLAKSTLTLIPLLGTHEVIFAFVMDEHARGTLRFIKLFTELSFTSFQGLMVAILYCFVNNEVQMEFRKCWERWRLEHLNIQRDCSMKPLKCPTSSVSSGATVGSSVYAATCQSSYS
Briefly: cAMP accumulation assay (HTRF), functional agonism of mouse GLP1 receptor in HEK cells. The experiment is classed as cell-based. The note with it: HEK cells transiently transfected, 45 min 37° C.; for Emax: HEK293, read-out: Mouse GLP-1 R agonist cAMP Emax; for EC50: read-out: Mouse GLP-1 R agonist cAMP pEC50 (converted).

In experiment [3] the target is T3, mouse GLP2 receptor (Mus musculus, UniProt Q5IXF8).
T3 construct: expressed in transfected cells; host or cells: HEK cells, transient transfection with GeneJuice
T3 sequence (Q5IXF8 1-512): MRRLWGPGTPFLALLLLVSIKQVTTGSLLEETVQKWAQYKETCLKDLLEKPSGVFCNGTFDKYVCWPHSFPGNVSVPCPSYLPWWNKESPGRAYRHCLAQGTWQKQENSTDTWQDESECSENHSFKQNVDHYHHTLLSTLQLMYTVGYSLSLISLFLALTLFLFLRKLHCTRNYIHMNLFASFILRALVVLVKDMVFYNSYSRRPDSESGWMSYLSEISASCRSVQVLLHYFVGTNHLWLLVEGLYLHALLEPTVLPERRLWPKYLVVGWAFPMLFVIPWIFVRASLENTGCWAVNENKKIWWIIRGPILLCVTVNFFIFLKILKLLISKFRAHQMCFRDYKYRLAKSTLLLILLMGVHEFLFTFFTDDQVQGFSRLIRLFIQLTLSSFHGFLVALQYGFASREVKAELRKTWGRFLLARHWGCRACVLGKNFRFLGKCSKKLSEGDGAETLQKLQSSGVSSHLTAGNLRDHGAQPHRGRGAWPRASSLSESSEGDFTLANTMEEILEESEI
The experiment in a line: cAMP accumulation assay (HTRF), functional agonism of mouse GLP2 receptor in HEK cells. The experiment is classed as cell-based. The note with it: HEK cells transiently transfected, 45 min 37° C.; for Emax: HEK293, read-out: Mouse GLP-2R agonist cAMP Emax; for EC50: read-out: Mouse GLP-2R agonist cAMP pEC50 (converted).

The subject of experiment [4] is C57BL/6J male mice. Briefly: Effect on intestinal wet weight in normal mice (FIG. 1). Type of experiment: in vivo, mouse. The note with it: once daily sc 270 nmol/kg (liraglutide iv 200 ug/kg), sacrificed on day 3, vs. vehicle. The protocol: Mice were sacrificed on day 3 and the wet weight of the small intestine was quantified. GLP-2 active peptides show significant enhancement of the small intestinal weight. […] N=6 animals / grp. *p < 0.05 vs. vehicle
C57BL/6J male mice (Charles River, Italy, ~8 weeks) are randomly allocated to the treatment group based on the baseline body weights. Animals are given free access to food and water during the whole duration of the study. Mice are dosed daily with the test compounds via subcutaneous injection. […] The abdominal cavity will be opened and the intestinal tissue is excised carefully to avoid perforation. Tissue from the upper small intestine (15 cm segment from the pylorus) is collected. The bowel is cleaned by flushing through with ice cold PBS to remove any feces.

The test system of experiment [5] is C57BL/6J male mice. The experiment in a line: Dose response effect on intestinal mass in normal mice, 7 day dosing (FIG. 2). Type of experiment: in vivo, mouse. Conditions: daily sc. The protocol: The enhancement of the small bowel wet weight (over vehicle) is plotted as a function of the peptide dose. […] N=6 animals I grp.
C57BL/6J male mice (Charles River, Italy, ~8 weeks) are randomly allocated to the treatment group based on the baseline body weights. Animals are given free access to food and water during the whole duration of the study. Mice are dosed daily with the vehicle or test peptides via subcutaneous injection. On day 7, animals are sacrificed and segments from the upper small intestine (15 cm segment from the pylorus) are collected and weighed (see Example B).

The subject of experiment [6] is C57BL/6J male mice. The experiment in a line: Effect on glucose tolerance (OGTT) in normal mice (FIG. 3). The experiment is classed as in vivo, mouse. The note with it: mice fasted 6 h, 270 nmol/kg sc 1 hour before 2 g/kg oral glucose (liraglutide 200 ug/kg iv). The protocol:
One hour before glucose challenge, Example 1 or 3 (270 nmol/kg) or vehicle (0.1% Tween80 in PBS) was administered as a single subcutaneous injection. […] Serial blood glucose measurements were taken at baseline and at timepoints post oral glucose challenge. (A) Time course of blood glucose levels. N=6 animals / grp. Mean +/-SEM.
C57BL/6J male mice (Charles River, Italy, ~8w) are fasted for 6 hours on the day of testing with free access to drinking water. Prior to drug dosing, pre-dose blood glucose measurements are taken using a glucometer (ACCU-CHEK performa, Roche Diagnostic GmbH). Animals are dosed with either the vehicle (0.1% Tween80 in PBS) or compound (270 nmol/kg) via subcutaneous injection. […] 1 hour after dosing, mice are given 2 g/kg oral gavage of glucose and blood is sampled at defined time points for analysis of blood glucose levels. Timepoints of sampling: t=0 (prior to glucose dosing), 15 mins, 30 mins, 60 mins, 120 mins and 180 mins.

In experiment [7] the target is T4, human GLP2 receptor (Homo sapiens, UniProt O95838).
T4 sequence (O95838 1-553): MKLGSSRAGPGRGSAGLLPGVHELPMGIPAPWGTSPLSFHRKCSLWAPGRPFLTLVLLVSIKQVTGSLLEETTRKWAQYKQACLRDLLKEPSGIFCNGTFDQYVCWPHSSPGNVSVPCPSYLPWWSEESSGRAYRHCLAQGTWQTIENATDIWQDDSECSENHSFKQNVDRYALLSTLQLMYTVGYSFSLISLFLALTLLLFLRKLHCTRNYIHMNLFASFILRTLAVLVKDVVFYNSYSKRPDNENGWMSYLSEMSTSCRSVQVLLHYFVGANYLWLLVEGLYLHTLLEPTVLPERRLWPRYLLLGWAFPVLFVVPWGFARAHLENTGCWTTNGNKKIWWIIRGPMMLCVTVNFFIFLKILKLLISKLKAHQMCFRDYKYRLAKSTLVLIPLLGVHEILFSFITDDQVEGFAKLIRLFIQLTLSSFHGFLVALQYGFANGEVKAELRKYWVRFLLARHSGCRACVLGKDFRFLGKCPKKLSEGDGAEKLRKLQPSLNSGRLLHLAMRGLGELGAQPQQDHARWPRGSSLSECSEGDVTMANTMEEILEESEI
The experiment in a line: cAMP accumulation assay (HTRF), functional agonism of human GLP2 receptor in HEK cells.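 As to all read-outs here: HEK cells transduced via BacMam to express human GLP2 receptor, agonist-stimulated cAMP measured by HTRF after 45 min at 37 °C in HBSS with 0.5 mM IBMX.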 Conditions: for Emax: HEK293, read-out: Human GLP-2R agonist cAMP Emax.
Protocol: as §1, §2

The structures appear in SMILES notation. “Also recorded” adds a separate entry of the source. Non-standard residues stand in square brackets, D forms with d. Residues, ends and D or L forms follow the SMILES beside them. *: point of attachment. Malonyl(2,2-Me2,histaminyl) = CC(C)(C(=O)NCCc1cnc[nH]1)C(=O)*; Ala(1H-tetrazol-5-yl) = N[C@@H](Cc1nnn[nH]1)C(=O)O; αMePhe(2-F) = C[C@](N)(Cc1ccccc1F)C(=O)O; Nle = CCCC[C@H](N)C(=O)O; Alloc = C=CCOC(=O)*

T1 sequence (P43220 24-463): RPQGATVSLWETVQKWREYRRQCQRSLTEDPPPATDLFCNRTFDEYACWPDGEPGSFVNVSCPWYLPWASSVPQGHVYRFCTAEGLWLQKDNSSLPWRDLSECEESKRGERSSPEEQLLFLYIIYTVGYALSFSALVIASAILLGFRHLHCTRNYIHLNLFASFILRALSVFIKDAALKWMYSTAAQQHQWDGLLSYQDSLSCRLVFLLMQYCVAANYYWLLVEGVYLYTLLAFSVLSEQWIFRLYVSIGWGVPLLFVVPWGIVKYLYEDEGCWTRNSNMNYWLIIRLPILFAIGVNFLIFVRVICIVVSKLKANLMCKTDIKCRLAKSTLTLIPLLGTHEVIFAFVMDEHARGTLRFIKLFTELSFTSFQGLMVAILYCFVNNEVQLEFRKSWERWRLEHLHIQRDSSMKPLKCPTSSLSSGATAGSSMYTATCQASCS

Usually Emax stands for the maximal effect, on the per cent scale that the assay sets. With `C=CCOC(=O)NCCCC[C@H](NC(=O)[C@H](CC(C)C)NC(=O)[C@H](CC(=O)O)NC(=O)[C@H](CC(C)C)NC(=O)[C@@H](NC(=O)[C@@H](NC(=O)[C@@H](Cc1ccccc1)NC(=O)[C@H](CCCC)NC(=O)[C@H](CCC(=O)O)NC(=O)[C@H](CC(=O)O)NC(=O)[C@H](CO)NC(=O)[C@H](Cc1ccccc1)NC(=O)[C@H](CO)NC(=O)CNC(=O)[C@H](Cc1nn[nH]n1)NC(=O)C(C)(C)C(=O)NCCc1c[nH]cn1)[C@@H](C)O)[C@@H](C)CC)C(=O)N[C@@H](C)C(=O)N[C@@H](C)C(=O)N[C@@H](CCCCN)C(=O)N[C@@H](CC(=O)O)C(=O)N[C@@H](Cc1ccccc1)C(=O)N[C@H](C(=O)N[C@@H](CC(N)=O)C(=O)N[C@@H](Cc1c[nH]c2ccccc12)C(=O)N[C@@H](CC(C)C)C(=O)N[C@H](C(=O)N[C@@H](CCC(N)=O)C(=O)N[C@H](C(=O)N[C@@H](CCCCN)C(=O)N[C@H](C(=O)N[C@H](C(=O)N[C@@H](CC(=O)O)C(N)=O)[C@@H](C)O)[C@@H](C)CC)[C@@H](C)O)[C@@H](C)CC)[C@@H](C)CC` [Example 1] ({Malonyl(2,2-Me2,histaminyl)}-[Ala(1H-tetrazol-5-yl)]GSFSDE[Nle][dF]TILDLK(Alloc)AAKDFINWLIQTKITD-NH2), the Emax worked out at 94.1% in experiment [1], 95.9% in experiment [2], 102% in experiment [3] and 102% in experiment [7]. Moreover, the EC50 is 3.16 nM in experiment [1], 3.16 nM in experiment [2], 0.2 nM in experiment [3] and 0.01 nM in experiment [7]. In addition, the “wet weight of the small intestine” value in experiment [4] is given as “superior enhancements in intestinal weight compared to Teduglutide; also recorded: Significant enhancement of intestinal wet weight”. The “enhancement of small bowel wet weight (over vehicle) as a function of dose” value in experiment [5] is recorded as “greater maximal enhancements in small intestinal wet weight compared to Teduglutide; also recorded: dose dependent enhancements in the wet weight of the small intestine”. Moreover, the “peak blood glucose concentration in OGTT” value in experiment [6] is listed as “significantly reduced”.

Take `C=CCOC(=O)NCCCC[C@H](NC(=O)[C@H](CC(C)C)NC(=O)[C@H](CC(=O)O)NC(=O)[C@H](CC(C)C)NC(=O)[C@@H](NC(=O)[C@@H](NC(=O)[C@@H](Cc1ccccc1)NC(=O)[C@H](CCCC)NC(=O)[C@H](CCC(=O)O)NC(=O)[C@H](CC(=O)O)NC(=O)[C@H](CO)NC(=O)[C@](C)(Cc1ccccc1F)NC(=O)[C@H](CO)NC(=O)CNC(=O)[C@H](Cc1nn[nH]n1)NC(=O)C(C)(C)C(=O)NCCc1c[nH]cn1)[C@@H](C)O)[C@@H](C)CC)C(=O)N[C@@H](C)C(=O)N[C@@H](C)C(=O)N[C@@H](CCCCN)C(=O)N[C@@H](CC(=O)O)C(=O)N[C@@H](Cc1ccccc1)C(=O)N[C@H](C(=O)N[C@@H](CC(N)=O)C(=O)N[C@@H](Cc1c[nH]c2ccccc12)C(=O)N[C@@H](CC(C)C)C(=O)N[C@H](C(=O)N[C@@H](CCC(N)=O)C(=O)N[C@H](C(=O)N[C@@H](CCCCN)C(=O)N[C@H](C(=O)N[C@H](C(=O)N[C@@H](CC(=O)O)C(N)=O)[C@@H](C)O)[C@@H](C)CC)[C@@H](C)O)[C@@H](C)CC)[C@@H](C)CC` [Example 3] ({Malonyl(2,2-Me2,histaminyl)}-[Ala(1H-tetrazol-5-yl)]GS[αMePhe(2-F)]SDE[Nle][dF]TILDLK(Alloc)AAKDFINWLIQTKITD-NH2): the Emax is 99.2% in experiment [1], 99.5% in experiment [2], 103% in experiment [3] and 102% in experiment [7]. For the same compound, the EC50 in experiment [1] is 0.0794 nM; in experiment [2], 0.398 nM; in experiment [3], 0.501 nM; in experiment [7], 0.0158 nM. Besides, the “wet weight of the small intestine” value in experiment [4] is reported as “superior enhancements in intestinal weight compared to Teduglutide; also recorded: Significant enhancement of intestinal wet weight”. Moreover, the “enhancement of small bowel wet weight (over vehicle) as a function of dose” value in experiment [5] is recorded as “greater maximal enhancements in small intestinal wet weight compared to Teduglutide; also recorded: dose dependent enhancements in the wet weight of the small intestine”. In addition, the “peak blood glucose concentration in OGTT” value in experiment [6] is reported as “significantly reduced”.
